What all share (type): cell-based
For assay [1], the system named is MCF-7 cells. The assay is described as follows: Cell-cycle analysis by flow cytometry. As to conditions: MCF-7, at GI50 concentration, 24 h and 48 h. The source says:
The effect of compound (7b and 13c) on the normal cell-cycle progression was characterised using flow cytometric analysis of the DNA ploidy in MCF-7 cells using BD […] ^TM software. […] The observed increase in sub-G1 cell population may imply DNA fragmentation and apoptosis as a potential mechanism for 7b/13c-induced cancer cell death.
(§1) The cells then were collected by trypsinization, washed with phosphate buffered saline (PBS), and fixed in ice-cold absolute alcohol. Thereafter, cells were stained, using Cycletest^TM Plus DNA Reagent Kit (BD Biosciences, San Jose, CA), according to the manufacturer’s instructions. Cell cycle distribution was determined using a FACS Calibur flow cytometer (BD Biosciences, San Jose, CA).

For assay [2], the system named is MCF-7 cells. Kind of assay: Annexin V-FITC/PI apoptosis detection. To be noted: MCF-7, at GI50, 24 h and 48 h. From the text:
(§2) To further investigate the ability of compounds (7b, 13c and 16a) to induce apoptosis, an Annexin V (conjugated to FITC) apoptosis detection kit was employed. This assay detects phosphatidylserine (PS) expressed on the surface of apoptotic cells and fluoresces green after interacting with the labelled Annexin V. During early apoptosis, membrane asymmetry is lost, and PS translocates from the cytoplasmic side of the membrane to the external leaflet. Propidium iodide (PI), the counter stain used in this assay, has the ability to cross only compromised membranes to intercalate into the DNA. Therefore, PI is used to detect the late stages of apoptosis by the presence of red fluorescence.
(§3) Apoptosis was determined by staining cells with Annexin V–fluorescein isothiocyanate (FITC) and counterstaining with propidium iodide (PI) using the Annexin V–FITC/PI apoptosis detection kit (BD PharMingen, San Diego, CA, USA) according to the manufacturer's instructions. […] The cells then were collected by trypsinization and 0.5 × 10^6 cells were washed twice with phosphate-buffered saline (PBS) and stained with 5 μl Annexin V–FITC and 5 μl PI in 1× binding buffer (BD PharMingen) for 15 minutes at room temperature in the dark. Analyses were performed using FACS Calibur flow cytometer (BD Biosciences, San Jose, CA).

Assay [3] relates to HCT-116 cells. The assay is described as follows: Cell-cycle analysis by flow cytometry. To be noted: HCT-116, at GI50 concentration (1.20 µM), 24 h and 48 h. The protocol: as §1
On the technique in general: In flow cytometry, cells or beads pass a laser one at a time.

Assay [4] concerns HCT-116 cells. Kind of assay: Annexin V-FITC/PI apoptosis detection. As to conditions: HCT-116, at GI50, 24 h and 48 h.
From the text: as §2, §3

Entries after “also recorded” stand apart in the source; their conditions may differ.

`O=C(Nc1ccc(Cl)cc1)Nc1ccc(Oc2nncc3ccccc23)cc1` [Compound 7b, 1–(4-Chlorophenyl)-3–(4-(phthalazin-1-yloxy)phenyl)urea]: the “effect on cell-cycle progression” value in the assay with MCF-7 cells [1] was “induce cell cycle arrest at S phase boundary; also recorded: remarkable disruption in cell cycle profile and cell-cycle arrest at S-phase boundary with concurrent time-dependent increase in pre-G cell population”. The “induction of apoptosis (Annexin-V positive cells), in words” value in the assay with MCF-7 cells [2] is listed as “increased the percentage of Annexin-V positive cells indicating an early (lower right quadrant) or late (upper right quadrant) apoptosis in a time-dependent manner”.

Take `Clc1ccc(Nc2nnc(CNc3ccccc3)c3ccccc23)cc1` [Compound 16a, N-(4-Chlorophenyl)-4-((phenylamino)methyl)phthalazin-1-amine]: the “effect on cell-cycle progression” value in the assay with HCT-116 cells [3] is “induce cell cycle arrest at S phase boundary; also recorded: significant action at both S phase and sub-G1 cell population”. Besides, in the assay with HCT-116 cells [4], the “induction of apoptosis (Annexin-V positive cells), in words” value is given as “increased the percentage of Annexin-V positive cells in lower right quadrant indicating early apoptosis”.
